Test results taken from PMC6874179, “Development of Macrocycle Kinase Inhibitors for ALK2 Using Fibrodysplasia Ossificans Progressiva‐Derived Endothelial Cells” (JBMR Plus, 2019).

What was measured:
NTRK1 = molecular target: T1, NTRK1 (Homo sapiens, UniProt P04629); assay: Proqinase Kinase profiling; format: biochemical; settings: read-out: % inhibition at 100nM
T1 construct: purchased DiscoverX

CAMK2A = molecular target: T2, CAMK2A (Homo sapiens, UniProt Q9UQM7); assay: Proqinase Kinase profiling; format: biochemical; settings: read-out: % inhibition at 100nM
T2 construct: purchased DiscoverX
T2 sequence (Q9UQM7 whole entry): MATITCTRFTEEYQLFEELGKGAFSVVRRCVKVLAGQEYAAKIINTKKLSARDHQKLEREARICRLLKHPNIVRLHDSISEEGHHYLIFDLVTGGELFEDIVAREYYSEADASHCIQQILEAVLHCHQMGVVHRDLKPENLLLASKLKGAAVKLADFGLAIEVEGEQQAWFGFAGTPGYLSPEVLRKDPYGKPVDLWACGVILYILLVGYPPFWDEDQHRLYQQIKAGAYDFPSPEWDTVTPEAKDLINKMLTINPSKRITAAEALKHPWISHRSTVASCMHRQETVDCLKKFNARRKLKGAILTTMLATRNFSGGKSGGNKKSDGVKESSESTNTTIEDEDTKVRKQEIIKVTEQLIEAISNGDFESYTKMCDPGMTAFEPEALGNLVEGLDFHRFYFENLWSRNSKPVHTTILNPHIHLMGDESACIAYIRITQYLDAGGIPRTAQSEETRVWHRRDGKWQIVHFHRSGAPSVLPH

ACVR2B = molecular target: T3, ACVR2B (Homo sapiens, UniProt Q13705); assay: Proqinase Kinase profiling; format: biochemical; settings: read-out: % inhibition at 100nM
T3 construct: T7 phage fusion (or DNA tag for qPCR if made in HEK-293); purchased DiscoverX; host or cells: E. coli (T7 phage) or HEK-293
T3 sequence (Q13705 19-512): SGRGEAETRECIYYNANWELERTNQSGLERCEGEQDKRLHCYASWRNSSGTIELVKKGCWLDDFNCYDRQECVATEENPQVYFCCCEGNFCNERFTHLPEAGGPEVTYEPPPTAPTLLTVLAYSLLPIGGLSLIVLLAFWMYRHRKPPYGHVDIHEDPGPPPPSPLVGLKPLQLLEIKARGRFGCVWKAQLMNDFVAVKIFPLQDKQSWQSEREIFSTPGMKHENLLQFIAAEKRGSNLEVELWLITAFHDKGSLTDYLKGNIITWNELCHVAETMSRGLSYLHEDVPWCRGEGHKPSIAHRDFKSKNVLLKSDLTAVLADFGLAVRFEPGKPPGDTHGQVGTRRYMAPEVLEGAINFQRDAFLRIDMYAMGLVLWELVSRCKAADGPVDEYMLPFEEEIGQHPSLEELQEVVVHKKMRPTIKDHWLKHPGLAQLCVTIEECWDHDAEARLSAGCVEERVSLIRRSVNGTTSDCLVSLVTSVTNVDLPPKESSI

LRRK2_R1441C = molecular target: T4, LRRK2_R1441C (Homo sapiens, UniProt Q5S007, R1441C); assay: Proqinase Kinase profiling; format: biochemical; settings: read-out: % inhibition at 100nM
T4 construct: purchased DiscoverX

MAP3K11 = molecular target: T5, MAP3K11 (Homo sapiens, UniProt Q16584); assay: Proqinase Kinase profiling; format: biochemical; settings: read-out: % inhibition at 100nM
T5 construct: purchased DiscoverX

PAK4 = molecular target: T6, PAK4 (Homo sapiens, UniProt O96013); assay: Proqinase Kinase profiling; format: biochemical; settings: read-out: % inhibition at 100nM
T6 construct: purchased DiscoverX
T6 sequence (O96013 whole entry): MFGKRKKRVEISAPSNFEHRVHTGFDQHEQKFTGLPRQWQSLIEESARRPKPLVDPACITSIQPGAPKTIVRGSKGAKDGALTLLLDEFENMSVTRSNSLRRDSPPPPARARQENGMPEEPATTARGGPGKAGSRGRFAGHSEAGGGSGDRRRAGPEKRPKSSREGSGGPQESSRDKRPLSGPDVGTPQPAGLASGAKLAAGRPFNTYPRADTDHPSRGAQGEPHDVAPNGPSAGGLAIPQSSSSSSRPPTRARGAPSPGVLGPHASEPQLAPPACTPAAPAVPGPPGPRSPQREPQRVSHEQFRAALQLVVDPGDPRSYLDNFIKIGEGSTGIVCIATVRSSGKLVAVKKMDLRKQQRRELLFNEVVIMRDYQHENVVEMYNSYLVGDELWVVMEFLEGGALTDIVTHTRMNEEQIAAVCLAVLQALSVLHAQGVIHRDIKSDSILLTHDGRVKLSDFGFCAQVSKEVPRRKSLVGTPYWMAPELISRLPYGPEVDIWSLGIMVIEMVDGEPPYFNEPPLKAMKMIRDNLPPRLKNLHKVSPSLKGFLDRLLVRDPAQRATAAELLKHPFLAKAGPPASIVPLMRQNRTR

ABL1_Y253F = molecular target: T7, ABL1_Y253F (Homo sapiens, UniProt P00519, Y253F); assay: Proqinase Kinase profiling; format: biochemical; settings: read-out: % inhibition at 100nM
T7 construct: purchased DiscoverX

ABL1_E255K = molecular target: T8, ABL1_E255K (Homo sapiens, UniProt P00519, E255K); assay: Proqinase Kinase profiling; format: biochemical; settings: read-out: % inhibition at 100nM
T8 construct: purchased DiscoverX

FGFR1 = molecular target: T9, FGFR1 (Homo sapiens, UniProt P11362); assay: Proqinase Kinase profiling; format: biochemical; settings: read-out: % inhibition at 100nM
T9 construct: purchased DiscoverX

STK17A = molecular target: T10, STK17A (Homo sapiens, UniProt Q9UEE5); assay: Proqinase Kinase profiling; format: biochemical; settings: read-out: % inhibition at 100nM
T10 construct: purchased DiscoverX

PIM2 = molecular target: T11, PIM2 (Homo sapiens, UniProt Q9P1W9); assay: Proqinase Kinase profiling; format: biochemical; settings: read-out: % inhibition at 100nM
T11 construct: purchased DiscoverX

STK25 = molecular target: T12, STK25 (Homo sapiens, UniProt O00506); assay: Proqinase Kinase profiling; format: biochemical; settings: read-out: % inhibition at 100nM
T12 construct: purchased DiscoverX

MYLK3 = molecular target: T13, MYLK3 (Homo sapiens, UniProt Q32MK0); assay: Proqinase Kinase profiling; format: biochemical; settings: read-out: % inhibition at 100nM
T13 construct: purchased DiscoverX
T13 sequence (Q32MK0 whole entry): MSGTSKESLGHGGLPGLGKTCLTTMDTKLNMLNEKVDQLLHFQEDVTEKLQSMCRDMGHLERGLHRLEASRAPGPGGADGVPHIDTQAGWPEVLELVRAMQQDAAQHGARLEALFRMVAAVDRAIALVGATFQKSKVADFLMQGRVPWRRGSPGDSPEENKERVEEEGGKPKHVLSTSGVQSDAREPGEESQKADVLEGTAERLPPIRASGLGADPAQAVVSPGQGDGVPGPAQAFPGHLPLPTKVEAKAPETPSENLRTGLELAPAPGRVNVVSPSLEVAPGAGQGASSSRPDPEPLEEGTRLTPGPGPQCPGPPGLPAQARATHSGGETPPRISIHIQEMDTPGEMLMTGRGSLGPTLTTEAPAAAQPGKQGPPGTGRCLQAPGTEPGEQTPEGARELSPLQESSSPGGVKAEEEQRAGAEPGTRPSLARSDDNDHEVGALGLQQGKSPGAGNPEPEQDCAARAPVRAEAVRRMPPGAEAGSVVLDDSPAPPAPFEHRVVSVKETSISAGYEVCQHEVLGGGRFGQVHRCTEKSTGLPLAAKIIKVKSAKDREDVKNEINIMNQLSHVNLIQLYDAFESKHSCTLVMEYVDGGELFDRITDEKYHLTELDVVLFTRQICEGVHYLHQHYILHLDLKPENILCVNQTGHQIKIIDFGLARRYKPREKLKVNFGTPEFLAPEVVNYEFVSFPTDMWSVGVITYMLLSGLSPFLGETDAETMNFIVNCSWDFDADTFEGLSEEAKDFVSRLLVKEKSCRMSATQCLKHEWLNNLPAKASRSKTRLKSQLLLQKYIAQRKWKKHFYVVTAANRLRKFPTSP

CSNK1A1 = molecular target: T14, CSNK1A1 (Homo sapiens, UniProt P48729); assay: Proqinase Kinase profiling; format: biochemical; settings: read-out: % inhibition at 100nM
T14 construct: purchased DiscoverX

NLK = molecular target: T15, NLK (Homo sapiens, UniProt Q9UBE8); assay: Proqinase Kinase profiling; format: biochemical; settings: read-out: % inhibition at 100nM
T15 construct: purchased DiscoverX
T15 sequence (Q9UBE8 whole entry): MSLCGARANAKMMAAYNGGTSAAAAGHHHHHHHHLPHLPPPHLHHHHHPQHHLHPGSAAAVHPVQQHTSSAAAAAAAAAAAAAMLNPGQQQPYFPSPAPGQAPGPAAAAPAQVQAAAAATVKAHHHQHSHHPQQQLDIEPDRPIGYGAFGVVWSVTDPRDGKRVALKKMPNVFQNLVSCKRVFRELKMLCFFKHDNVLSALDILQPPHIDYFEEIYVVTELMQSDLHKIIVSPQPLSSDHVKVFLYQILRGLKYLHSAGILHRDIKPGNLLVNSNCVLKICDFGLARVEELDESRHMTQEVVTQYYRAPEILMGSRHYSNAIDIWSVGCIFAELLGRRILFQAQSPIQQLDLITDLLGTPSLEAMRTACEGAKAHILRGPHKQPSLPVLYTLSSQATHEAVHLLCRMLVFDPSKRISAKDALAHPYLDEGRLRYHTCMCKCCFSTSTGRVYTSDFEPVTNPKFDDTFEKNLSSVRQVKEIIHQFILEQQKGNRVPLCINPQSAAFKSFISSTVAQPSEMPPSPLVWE

RPS6KA6 = molecular target: T16, RPS6KA6 (Homo sapiens, UniProt Q9UK32); assay: Proqinase Kinase profiling; format: biochemical; settings: read-out: % inhibition at 100nM
T16 construct: purchased DiscoverX

SGK3 = molecular target: T17, SGK3 (Homo sapiens, UniProt Q96BR1); assay: Proqinase Kinase profiling; format: biochemical; settings: read-out: % inhibition at 100nM
T17 construct: purchased DiscoverX

DSTYK = molecular target: T18, DSTYK (Homo sapiens, UniProt Q6XUX3); assay: Proqinase Kinase profiling; format: biochemical; settings: read-out: % inhibition at 100nM
T18 construct: purchased DiscoverX

NEK4 = molecular target: T19, NEK4 (Homo sapiens, UniProt P51957); assay: Proqinase Kinase profiling; format: biochemical; settings: read-out: % inhibition at 100nM
T19 construct: purchased DiscoverX
T19 sequence (P51957 whole entry): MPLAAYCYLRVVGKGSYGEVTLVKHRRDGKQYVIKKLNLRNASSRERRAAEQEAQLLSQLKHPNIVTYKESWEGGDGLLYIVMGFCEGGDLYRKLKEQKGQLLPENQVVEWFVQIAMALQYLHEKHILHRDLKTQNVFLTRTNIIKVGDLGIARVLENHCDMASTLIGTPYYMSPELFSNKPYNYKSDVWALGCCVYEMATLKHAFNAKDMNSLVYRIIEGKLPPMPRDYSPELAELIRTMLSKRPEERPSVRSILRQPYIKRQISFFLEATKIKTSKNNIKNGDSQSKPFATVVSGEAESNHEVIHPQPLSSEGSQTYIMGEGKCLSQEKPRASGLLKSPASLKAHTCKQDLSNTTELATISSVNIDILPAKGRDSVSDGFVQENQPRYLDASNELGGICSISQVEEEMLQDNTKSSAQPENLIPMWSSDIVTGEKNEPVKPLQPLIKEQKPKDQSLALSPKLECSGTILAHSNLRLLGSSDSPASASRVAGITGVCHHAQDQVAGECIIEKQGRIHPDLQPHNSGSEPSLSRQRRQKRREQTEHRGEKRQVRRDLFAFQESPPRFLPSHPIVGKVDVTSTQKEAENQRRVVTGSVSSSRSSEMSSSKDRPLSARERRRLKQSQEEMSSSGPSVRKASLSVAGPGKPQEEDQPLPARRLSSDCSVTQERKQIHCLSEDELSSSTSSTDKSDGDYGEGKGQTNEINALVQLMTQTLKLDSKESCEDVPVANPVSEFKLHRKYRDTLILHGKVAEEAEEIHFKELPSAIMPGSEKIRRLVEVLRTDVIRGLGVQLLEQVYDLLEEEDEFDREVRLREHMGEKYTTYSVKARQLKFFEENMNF

WNK3 = molecular target: T20, WNK3 (Homo sapiens, UniProt Q9BYP7); assay: Proqinase Kinase profiling; format: biochemical; settings: read-out: % inhibition at 100nM
T20 construct: purchased DiscoverX

NEK1 = molecular target: T21, NEK1 (Homo sapiens, UniProt Q96PY6); assay: Proqinase Kinase profiling; format: biochemical; settings: read-out: % inhibition at 100nM
T21 construct: purchased DiscoverX

PLK2 = molecular target: T22, PLK2 (Homo sapiens, UniProt Q9NYY3); assay: Proqinase Kinase profiling; format: biochemical; settings: read-out: % inhibition at 100nM
T22 construct: purchased DiscoverX

MET_F1200I = molecular target: T23, MET_F1200I (Homo sapiens, UniProt P08581, F1200I); assay: Proqinase Kinase profiling; format: biochemical; settings: read-out: % inhibition at 100nM
T23 construct: purchased DiscoverX

EGFR_L861Q = molecular target: T24, EGFR_L861Q (Homo sapiens, UniProt P00533, L861Q); assay: Proqinase Kinase profiling; format: biochemical; settings: read-out: % inhibition at 100nM
T24 construct: purchased DiscoverX

TLK2 = molecular target: T25, TLK2 (Homo sapiens, UniProt Q86UE8); assay: Proqinase Kinase profiling; format: biochemical; settings: read-out: % inhibition at 100nM
T25 construct: purchased DiscoverX

EPHA8 = molecular target: T26, EPHA8 (Homo sapiens, UniProt P29322); assay: Proqinase Kinase profiling; format: biochemical; settings: read-out: % inhibition at 100nM
T26 construct: purchased DiscoverX

MARK2 = molecular target: T27, MARK2 (Homo sapiens, UniProt Q7KZI7); assay: Proqinase Kinase profiling; format: biochemical; settings: read-out: % inhibition at 100nM
T27 construct: purchased DiscoverX

EGFR_G719S = molecular target: T28, EGFR_G719S (Homo sapiens, UniProt P00533, G719S); assay: Proqinase Kinase profiling; format: biochemical; settings: read-out: % inhibition at 100nM
T28 construct: purchased DiscoverX

KIT_V654A = molecular target: T29, KIT_V654A (Homo sapiens, UniProt P10721, V654A); assay: Proqinase Kinase profiling; format: biochemical; settings: read-out: % inhibition at 100nM
T29 construct: purchased DiscoverX

HIPK3 = molecular target: T30, HIPK3 (Homo sapiens, UniProt Q9H422); assay: Proqinase Kinase profiling; format: biochemical; settings: read-out: % inhibition at 100nM
T30 construct: purchased DiscoverX

ERBB4 = molecular target: T31, ERBB4 (Homo sapiens, UniProt Q15303); assay: Proqinase Kinase profiling; format: biochemical; settings: read-out: % inhibition at 100nM
T31 construct: purchased DiscoverX

RPS6KA3 = molecular target: T32, RPS6KA3 (Homo sapiens, UniProt P51812); assay: Proqinase Kinase profiling; format: biochemical; settings: read-out: % inhibition at 100nM
T32 construct: purchased DiscoverX

MAP3K5 = molecular target: T33, MAP3K5 (Homo sapiens, UniProt Q99683); assay: Proqinase Kinase profiling; format: biochemical; settings: read-out: % inhibition at 100nM
T33 construct: purchased DiscoverX

KIT_D816H = molecular target: T34, KIT_D816H (Homo sapiens, UniProt P10721, D816H); assay: Proqinase Kinase profiling; format: biochemical; settings: read-out: % inhibition at 100nM
T34 construct: purchased DiscoverX

VRK1 = molecular target: T35, VRK1 (Homo sapiens, UniProt Q99986); assay: Proqinase Kinase profiling; format: biochemical; settings: read-out: % inhibition at 100nM
T35 construct: purchased DiscoverX

PAK3 = molecular target: T36, PAK3 (Homo sapiens, UniProt O75914); assay: Proqinase Kinase profiling; format: biochemical; settings: read-out: % inhibition at 100nM
T36 construct: purchased DiscoverX

TEK_Y897S = molecular target: T37, TEK_Y897S (Homo sapiens, UniProt Q02763, Y897S); assay: Proqinase Kinase profiling; format: biochemical; settings: read-out: % inhibition at 100nM
T37 construct: purchased DiscoverX
T37 sequence (Q02763 23-1124 Y897S): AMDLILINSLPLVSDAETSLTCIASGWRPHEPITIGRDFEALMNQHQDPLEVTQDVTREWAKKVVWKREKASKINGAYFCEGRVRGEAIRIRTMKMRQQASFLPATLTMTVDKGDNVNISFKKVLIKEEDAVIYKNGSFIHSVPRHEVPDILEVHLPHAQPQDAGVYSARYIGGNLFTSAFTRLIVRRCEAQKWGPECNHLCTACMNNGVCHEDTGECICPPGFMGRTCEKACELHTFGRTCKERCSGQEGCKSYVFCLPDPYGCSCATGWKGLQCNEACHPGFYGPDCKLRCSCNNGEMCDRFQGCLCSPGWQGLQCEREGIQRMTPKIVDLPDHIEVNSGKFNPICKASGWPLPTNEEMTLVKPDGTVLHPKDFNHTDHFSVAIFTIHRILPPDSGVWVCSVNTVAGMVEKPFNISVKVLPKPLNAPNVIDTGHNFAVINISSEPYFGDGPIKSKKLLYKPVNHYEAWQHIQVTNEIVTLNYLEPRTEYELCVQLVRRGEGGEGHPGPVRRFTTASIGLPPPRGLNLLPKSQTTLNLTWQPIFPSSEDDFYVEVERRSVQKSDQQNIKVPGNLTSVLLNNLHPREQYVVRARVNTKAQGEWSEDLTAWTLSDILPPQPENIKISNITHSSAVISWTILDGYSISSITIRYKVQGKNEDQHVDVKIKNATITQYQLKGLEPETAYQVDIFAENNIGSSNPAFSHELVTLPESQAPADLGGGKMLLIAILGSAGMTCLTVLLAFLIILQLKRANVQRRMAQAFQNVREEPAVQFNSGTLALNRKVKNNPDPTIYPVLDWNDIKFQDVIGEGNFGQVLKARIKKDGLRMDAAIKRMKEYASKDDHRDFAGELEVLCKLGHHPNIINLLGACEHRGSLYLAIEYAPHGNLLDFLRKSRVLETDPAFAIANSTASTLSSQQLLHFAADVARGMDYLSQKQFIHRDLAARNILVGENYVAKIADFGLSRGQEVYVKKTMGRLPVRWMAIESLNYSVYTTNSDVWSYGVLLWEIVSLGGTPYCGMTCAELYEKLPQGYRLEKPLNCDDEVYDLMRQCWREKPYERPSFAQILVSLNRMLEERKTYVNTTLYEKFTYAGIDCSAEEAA

[1] = tested on: TGF-β-induced CAGA-LUC reporter activity; assay: TGF-β CAGA-LUC reporter assay in KS483 cells; format: cell-based, mouse; settings: TGF-β 5 ng/mL 16 hours, compared with LDN-193189
Procedure: (§1) Compounds were added for 16 hours at 0.5μM before luciferase activity was measured.
(§2) For luciferase reporter assays, cells were seeded in 24-well plates and transfected with DharmaFECT Duo (Fisher Scientific, Landsmeer, The Netherlands), following the recommendations of the manufacturer. 48 hours after transfection the cells were harvested and lysed. […] Each transfection mixture was equalized with empty vector when necessary and every experiment was performed in triplicate.

caALK2 = molecular target: T38, caALK2 (Homo sapiens, UniProt Q04771, Q207D); assay: BRE-LUC with constitutive active ALK2 in C2C12 cells; format: cell-based; settings: compound 0.5μM 16 hours
T38 construct: expressed in transfected cells; host or cells: C2C12 murine myofibroblast cells
Procedure: as §1, §2

`Clc1cc2cc(c1)-c1cnn3ccc(nc13)NCCOCCO2` [OD36] was tested, and the inhibition at 0.1 µM (NTRK1) was 14%, the inhibition at 0.1 µM (CAMK2A) was 18% and the inhibition at 0.1 µM (ACVR2B) was 90%. For the same compound, the inhibition at 0.1 µM (LRRK2_R1441C) was 56%, the inhibition at 0.1 µM (MAP3K11) was 30% and the inhibition at 0.1 µM (PAK4) was -3%. For the same compound, the inhibition at 0.1 µM (ABL1_Y253F) was 3%, the inhibition at 0.1 µM (ABL1_E255K) was -2% and the inhibition at 0.1 µM (FGFR1) was 14%. It also gave an inhibition at 0.1 µM (STK17A) of 23%, an inhibition at 0.1 µM (PIM2) of 17% and an inhibition at 0.1 µM (STK25) of 1%. It also gave an inhibition at 0.1 µM (MYLK3) of 15%, an inhibition at 0.1 µM (CSNK1A1) of -6% and an inhibition at 0.1 µM (NLK) of 33%. For the same compound, the inhibition at 0.1 µM (RPS6KA6) was 8%, the inhibition at 0.1 µM (SGK3) was 7% and the inhibition at 0.1 µM (DSTYK) was 3%. It also gave an inhibition at 0.1 µM (NEK4) of 2%, an inhibition at 0.1 µM (WNK3) of 5% and an inhibition at 0.1 µM (NEK1) of 14%. For the same compound, the inhibition at 0.1 µM (PLK2) was 17%, the inhibition at 0.1 µM (MET_F1200I) was 4% and the inhibition at 0.1 µM (EGFR_L861Q) was 15%. For the same compound, the inhibition at 0.1 µM (TLK2) was 31%, the inhibition at 0.1 µM (EPHA8) was 11% and the inhibition at 0.1 µM (MARK2) was 11%. The inhibition at 0.1 µM (EGFR_G719S) was 10%, the inhibition at 0.1 µM (KIT_V654A) was 5% and the inhibition at 0.1 µM (HIPK3) was 12%. The inhibition at 0.1 µM (ERBB4) was 12%, the inhibition at 0.1 µM (RPS6KA3) was 11% and the inhibition at 0.1 µM (MAP3K5) was 13%. For the same compound, the inhibition at 0.1 µM (KIT_D816H) was 32%, the inhibition at 0.1 µM (VRK1) was -4% and the inhibition at 0.1 µM (PAK3) was 1%. For the same compound, the inhibition at 0.1 µM (TEK_Y897S) was 12%, the “Inhibitory effect on TGF-β-induced gene transcription (CAGA-LUC)” value [1] was “significantly less inhibitory effect” and the “Inhibition of caALK2-driven BRE-LUC activity” value (caALK2) was “exclusively inhibited ALK2”.

With `Cc1cc2cc(c1)-c1cnn3ccc(nc13)NCCNC(=O)CCN(C)C2` [OD52] the inhibition at 0.1 µM (NTRK1) was 29%, the inhibition at 0.1 µM (CAMK2A) was 25% and the inhibition at 0.1 µM (ACVR2B) was 17%. For the same compound, the inhibition at 0.1 µM (LRRK2_R1441C) was 16%, the inhibition at 0.1 µM (MAP3K11) was 14% and the inhibition at 0.1 µM (PAK4) was 7%. It also gave an inhibition at 0.1 µM (ABL1_Y253F) of 7%, an inhibition at 0.1 µM (ABL1_E255K) of 7% and an inhibition at 0.1 µM (FGFR1) of 5%. The inhibition at 0.1 µM (STK17A) was 4%, the inhibition at 0.1 µM (PIM2) was 4% and the inhibition at 0.1 µM (STK25) was 2%. The inhibition at 0.1 µM (MYLK3) was 2%, the inhibition at 0.1 µM (CSNK1A1) was 1% and the inhibition at 0.1 µM (NLK) was 1%. The inhibition at 0.1 µM (RPS6KA6) was 0%, the inhibition at 0.1 µM (SGK3) was 0% and the inhibition at 0.1 µM (DSTYK) was -1%. It also gave an inhibition at 0.1 µM (NEK4) of -3%, an inhibition at 0.1 µM (WNK3) of -4% and an inhibition at 0.1 µM (NEK1) of -4%. For the same compound, the inhibition at 0.1 µM (PLK2) was -4%, the inhibition at 0.1 µM (MET_F1200I) was -4% and the inhibition at 0.1 µM (EGFR_L861Q) was -4%. It also gave an inhibition at 0.1 µM (TLK2) of -5%, an inhibition at 0.1 µM (EPHA8) of -6% and an inhibition at 0.1 µM (MARK2) of -9%. The inhibition at 0.1 µM (EGFR_G719S) was -9%, the inhibition at 0.1 µM (KIT_V654A) was -9% and the inhibition at 0.1 µM (HIPK3) was -10%. For the same compound, the inhibition at 0.1 µM (ERBB4) was -10%, the inhibition at 0.1 µM (RPS6KA3) was -12% and the inhibition at 0.1 µM (MAP3K5) was -12%. For the same compound, the inhibition at 0.1 µM (KIT_D816H) was -14%, the inhibition at 0.1 µM (VRK1) was -15% and the inhibition at 0.1 µM (PAK3) was -15%. For the same compound, the inhibition at 0.1 µM (TEK_Y897S) was -31%, the “Inhibitory effect on TGF-β-induced gene transcription (CAGA-LUC)” value [1] was “significantly less inhibitory effect” and the “Inhibition of caALK2-driven BRE-LUC activity” value (caALK2) was “exclusively inhibited ALK2”.
